Results: PubChem BioAssay (NCI)
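Tested at 5 concentrations; 48 h exposure; 96-well plates; endpoints linearly interpolated, else capped at highest concentration. The concentration for 50% growth inhibition is given as GI50. TGI: concentration producing complete growth inhibition.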

Experiments:
Assay in all cases: NCI anticancer screen, dose series, 48 h
[1] = system: COLO 205 colon
[2] = system: UACC-62 melanoma
[3] = system: SNB-75 CNS
[4] = system: SK-OV-3 ovarian
[5] = system: OVCAR-5 ovarian
[6] = system: M14 melanoma
[7] = system: NCI-H23 lung
[8] = system: SW-620 colon
[9] = system: HT29 colon
[10] = system: DU-145 prostate
[11] = system: OVCAR-4 ovarian
[12] = system: HS 578T breast
[13] = system: MALME-3M melanoma
[14] = system: SF-268 CNS
[15] = system: OVCAR-8 ovarian
[16] = system: EKVX NSCLC
[17] = system: ACHN renal
[18] = system: CAKI-1 renal
[19] = system: MDA-MB-435
[20] = system: A498 renal
[21] = system: UO-31 renal
[22] = system: BT-549 breast
[23] = system: HCT-15 colon
[24] = system: UACC-257 melanoma
[25] = system: SR leukemia
[26] = system: PC-3 prostate
[27] = system: KM12 colon
[28] = system: SN12C renal
[29] = system: CCRF-CEM leukemia
[30] = system: HOP-62 NSCLC
[31] = system: RXF 393 renal
[32] = system: HCT-116 colon
[33] = system: A549 NSCLC
[34] = system: HL-60(TB) leukemia
[35] = system: SF-539 CNS
[36] = system: MCF7 breast
[37] = system: HCC-2998 colon
[38] = system: LOX IMVI melanoma
[39] = system: NCI/ADR-RES ovarian
[40] = system: TK-10 renal
[41] = system: SNB-19 CNS
[42] = system: MDA-MB-231 breast
[43] = system: RPMI-8226 leukemia
[44] = system: MOLT-4 leukemia
[45] = system: K-562 leukemia
[46] = system: NCI-H226 lung
[47] = system: SK-MEL-2 melanoma
[48] = system: IGROV1 ovarian
[49] = system: SK-MEL-28 melanoma
[50] = system: HOP-92 NSCLC
[51] = system: SF-295 CNS
[52] = system: OVCAR-3 ovarian
[53] = system: U251 CNS
[54] = system: T-47D breast
[55] = system: NCI-H522 lung
[56] = system: NCI-H460 lung
[57] = system: 786-0 renal
[58] = system: SK-MEL-5 melanoma

`CCCCCCCCCCCCOC1C(CNC(=O)C2OC3OC(C)(C)OC3C2NC(=O)CN2CCCCCC2)OC2OC(C)(C)OC21` (stereo unspecified) was tested, and the GI50 [1] was 2.49 µM, the TGI [1] was 6.76 µM and the GI50 [2] was 1.83 µM. It also gave a TGI [2] of 3.48 µM, a GI50 [3] of 8.49 µM and a TGI [3] of 21.4 µM. It also gave a GI50 [4] of 16.2 µM, a TGI [4] of 30.8 µM and a GI50 [5] of 6.44 µM. The TGI [5] was 19.5 µM, the GI50 [6] was 1.79 µM and the TGI [6] was 3.47 µM. It also gave a GI50 [7] of 10.9 µM, a TGI [7] of 24.8 µM and a GI50 [8] of 3.38 µM. The TGI [8] was 11.1 µM, the GI50 [9] was 1.87 µM and the TGI [9] was 3.74 µM. It also gave a GI50 [10] of 8.23 µM, a TGI [10] of 20.5 µM and a GI50 [11] of 6.47 µM. The TGI [11] was 20 µM, the GI50 [12] was 3.79 µM and the TGI [12] was 18.5 µM. The GI50 [13] was 1.99 µM, the TGI [13] was 4.1 µM and the GI50 [14] was 5.27 µM. The TGI [14] was 20.8 µM, the GI50 [15] was 11 µM and the TGI [15] was 25.5 µM. For the same molecule, the GI50 [16] was 8.15 µM, the TGI [16] was 20.7 µM and the GI50 [17] was 10.7 µM. For the same molecule, the TGI [17] was 25.3 µM, the GI50 [18] was 13 µM and the TGI [18] was 26.8 µM. The GI50 [19] was 2.72 µM, the TGI [19] was 7.9 µM and the GI50 [20] was 13 µM. The TGI [20] was 26.3 µM, the GI50 [21] was 6.22 µM and the TGI [21] was 18 µM. For the same molecule, the GI50 [22] was 9.06 µM, the TGI [22] was 22.1 µM and the GI50 [23] was 4.03 µM. The TGI [23] was 14.8 µM, the GI50 [24] was 3.14 µM and the TGI [24] was 8.75 µM. It also gave a GI50 [25] of 2.44 µM, a TGI [25] of 4.91 µM and a GI50 [26] of 4.57 µM. It also gave a TGI [26] of 15.8 µM, a GI50 [27] of 5.44 µM and a TGI [27] of 19.1 µM. It also gave a GI50 [28] of 9.64 µM, a TGI [28] of 24.6 µM and a GI50 [29] of 4.58 µM. The TGI [29] was 15.9 µM, the GI50 [30] was 6.48 µM and the TGI [30] was 18.1 µM. The GI50 [31] was 2.87 µM, the TGI [31] was 8.6 µM and the GI50 [32] was 4.06 µM. The TGI [32] was 12.8 µM, the GI50 [33] was 4.46 µM and the TGI [33] was 17.8 µM. It also gave a GI50 [34] of 1.87 µM, a TGI [34] of 4.39 µM and a GI50 [35] of 3.54 µM. For the same molecule, the TGI [35] was 8.58 µM, the GI50 [36] was 3.7 µM and the TGI [36] was 14.3 µM. The GI50 [37] was 6 µM, the TGI [37] was 19.3 µM and the GI50 [38] was 3.17 µM. The TGI [38] was 9.25 µM, the GI50 [39] was 4.14 µM and the TGI [39] was 15.7 µM. For the same molecule, the GI50 [40] was 8.27 µM, the TGI [40] was 22.5 µM and the GI50 [41] was 10.3 µM. For the same molecule, the TGI [41] was 23.8 µM, the GI50 [42] was 9.7 µM and the TGI [42] was 23 µM. For the same molecule, the GI50 [43] was 3.28 µM, the TGI [43] was 12.5 µM and the GI50 [44] was 3.12 µM. It also gave a TGI [44] of 9.85 µM, a GI50 [45] of 3.43 µM and a TGI [45] of 10.9 µM. It also gave a GI50 [46] of 16.7 µM, a TGI [46] of 38.1 µM and a GI50 [47] of 5.69 µM. For the same molecule, the TGI [47] was 12 µM, the GI50 [48] was 5.03 µM and the TGI [48] was 15.2 µM. For the same molecule, the GI50 [49] was 1.72 µM, the TGI [49] was 3.4 µM and the GI50 [50] was 9.4 µM. It also gave a TGI [50] of 22.8 µM, a GI50 [51] of 6.75 µM and a TGI [51] of 20.4 µM. For the same molecule, the GI50 [52] was 8.39 µM, the TGI [52] was 23.8 µM and the GI50 [53] was 4.91 µM. It also gave a TGI [53] of 15.9 µM, a GI50 [54] of 7.78 µM and a TGI [54] of 22.8 µM. For the same molecule, the GI50 [55] was 5.07 µM, the TGI [55] was 17.8 µM and the GI50 [56] was 5.19 µM. For the same molecule, the TGI [56] was 18.4 µM, the GI50 [57] was 10.4 µM and the TGI [57] was 23.4 µM. For the same molecule, the GI50 [58] was 1.85 µM and the TGI [58] was 3.41 µM.
